Measured values reported in patent publication US9999616B2 (ZENITH EPIGENETICS LTD., priority 2013, dated 2018).

target: Brd4 bromodomain 1 (BRD4(1)) (Homo sapiens, UniProt O60885); assay: Inhibition of tetra-acetylated histone H4 binding to Brd4 bromodomain 1, measured by FRET (HTRF); design: made in house; host or cells: E. coli BL21(DE3); details: 2 h at room temperature
Description: Proteins were cloned and overexpressed with a N-terminal 6×His tag, then purified by nickel affinity followed by size exclusion chromatography. Briefly, E. coli BL21(DE3) cells were transformed with a recombinant expression vector encoding N-terminally Nickel affinity tagged bromodomains from Brd2, Brd3, Brd4. Cell cultures were incubated at 37° C. with shaking to the appropriate density and induced overnight with IPTG. The supernatant of lysed cells was loaded onto Ni-IDA column for purification. Eluted protein was pooled, concentrated and further purified by size exclusion chromatography. Fractions representing monomeric protein were pooled, concentrated, aliquoted, and frozen at −80° C. for use in subsequent experiments.
Binding of tetra-acetylated histone H4 and BET bromodomains was confirmed by a Homogenous Time Resolved Fluorescence Resonance Energy Transfer (HTRF®) method. N-terminally His-tagged bromodomains (200 nM) and biotinylated tetra-acetylated histone H4 peptide (25-50 nM, Millipore) were incubated in the presence of Europium Cryptate-labeled streptavidin (Cisbio Cat. #610SAKLB) and XL665-labeled monoclonal anti-His antibody (Cisbio Cat. #61HISXLB) in a white 96 well microtiter plate (Greiner). For inhibition assays, serially diluted test compound was added to these reactions in a 0.2% final concentration of DMSO. Duplicate wells were used for each concentration tested. Final buffer concentrations were 30 mM HEPES pH 7.4, 30 mM NaCl, 0.3 mM CHAPS, 20 mM phosphate pH 7.0, 320 mM KF, 0.08% BSA. After a 2 h incubation at room temperature, fluorescence was measured at 665 and 620 nm with a SynergyH4 plate reader (Biotek). The binding inhibitory activity was shown by a decrease in 665 nm relative to 620 nm fluorescence. IC50 values were determined from a dose response curve.

| SMILES | IC50 [µM] |
| --- | --- |
| Cc1noc(C)c1-c1nc(-c2c(C)noc2C)c2ccccc2n1 [Example Compound 3, 4,4′-(quinazoline-2,4-diyl)bis (3,5-dimethyl isoxazole)] | 3 to 30 |
| Cc1noc(C)c1-c1cn2ccnc2c(-c2c(C)noc2C)n1 [Example Compound 10, 4,4′-(imidazo [1,2-a]pyrazine-6,8-diyl)bis(3,5-dimethylisoxazole)] | 3 to 30 |
| Cc1noc(C)c1-c1cc(-c2c(C)nn(C)c2C)cc2[nH]cnc12 [Example Compound 14, 3,5-dimethyl-4-(6-(1,3,5-trimethyl-1H-pyrazol-4-yl)-1H-benzo[d]imidazol-4-yl)isoxazole] | 3 to 30 |
| Cc1noc(C)c1-c1cc(-c2c(C)noc2C)c2ncnn2c1 [Example Compound 17, 4,4′-([1,2,4]triazolo [1,5-a]pyridine-6,8-diyl)bis (3,5-dimethyl-isoxazole)] | 3 to 30 |
| Cc1nc2c(-c3ccccc3C#N)cc(-c3c(C)noc3C)cc2[nH]1 [Example Compound 71, 2-(6-(3,5-dimethyl-isoxazol-4-yl)-2-methyl-1H-benzo[d]imidazol-4-yl)benzonitrile] | 3 to 30 |
| Cc1nc2c(-c3ncsc3C)cc(-c3c(C)noc3C)cc2[nH]1 [Example Compound 113, 3,5-dimethyl-4-(2-methyl-4-(5-methyl-thiazol-4-yl)-1H-benzo[d]imidazol-6-yl)isoxazole] | 0.3 to 3 |
| Cc1nc2c(-c3cn(C)nc3C(F)(F)F)cc(-c3c(C)noc3C)cc2[nH]1 [Example Compound 115, 3,5-dimethyl-4-(2-methyl-4-(1-methyl-3-(trifluoro-methyl)-1H-pyrazol-4-yl)-1H-benzo[d]imidazol-6-yl)isoxazole] | 0.3 to 3 |
| Cc1noc(C)c1-c1cc(-c2c(C)noc2C)c2nc(N(C)C)[nH]c2c1 [Example Compound 116, 4,6-bis(3,5-dimethyl-isoxazol-4-yl)-N,N-dimethyl-1H-benzo[d] imidazol-2-amine] | 0.3 to 3 |
| Cc1nc2c(N3CCCCC3=O)cc(-c3c(C)noc3C)cc2[nH]1 [Example Compound 122, 1-(6-(3,5-dimethylisoxazol-4-yl)-2-methyl-1H-benzo[d]imidazol-4-yl)piperidin-2-one] | 0.3 to 3 |
| Cc1nc2c(-c3cn(C)nc3C)cc(-c3cn(C)nc3C)cc2[nH]1 [Example Compound 133, 4,6-bis(1,3-dimethyl-1H-pyrazol-4-yl)-2-methyl-1H-benzo[d] imidazole] | 3 to 30 |
| Cc1nc2c(-c3ccnn3C)cc(-c3ccnn3C)cc2[nH]1 [Example Compound 134, 2-methyl-4,6-bis(1-methyl-1H-pyrazol-5-yl)-1H-benzo[d] imidazole] | 0.3 to 3 |
| Cc1noc(C)c1-c1cc(-c2c(C)noc2C)c2n[nH]c(=O)n2c1 [Example Compound 149, 6,8-bis(3,5-dimethyl-isoxazol-4-yl)-[1,2,4] triazolo[4,3-a] pyridin-3(2H)-one] | 3 to 30 |
| Cc1noc(C)c1-c1cc(-c2c(C)noc2C)c2nccnc2c1 [Example Compound 159, 4,4′-(quinoxaline-5,7-diyl)bis(3,5-dimethylisoxazole)] | 0.3 to 3 |
| Cc1nc2c(-c3c(C)cnn3C)cc(-c3c(C)cnn3C)cc2[nH]1 [Example Compound 167, 4,6-bis(1,4-dimethyl-1H-pyrazol-5-yl)-2-methyl-1H-benzo[d] imidazole] | 0.3 to 3 |
| Cc1nc2c(-c3sc(C)nc3C)cc(-c3sc(C)nc3C)cc2[nH]1 [Example Compound 168, 5,5′-(2-methyl-1H-benzo[d]imidazole-4,6-diyl) bis(2,4-dimethylthiazole)] | 3 to 30 |
| Cc1nc2c(-c3c(C)noc3C)cc(-c3c(C)noc3C)nc2[nH]1 [Example Compound 176, 4,4′-(2-methyl-3H-imidazo[4,5-b]pyridine-5,7-diyl)bis(3,5-dimethylisoxazole)] | 0.3 to 3 |
| Cc1ccncc1-c1cc(-c2c(C)noc2C)cc2[nH]c(N3CCN(C)CC3)nc12 [Example Compound 199, 3,5-dimethyl-4-(2-(4-methylpiperazin-1-yl)-4-(4-methylpyridin-3-yl)-1H-benzo[d]imidazol-6-yl)isoxazole] | 0.3 to 3 |

Continued, values first:

| IC50 [µM] | SMILES |
| --- | --- |
| ≤ 0.3 | Cc1noc(C)c1-c1cc(-c2c(C)noc2C)c2nc(NCc3ccccc3)[nH]c2c1 [Example Compound 31, N-benzyl-4,6-bis(3,5-dimethylisoxazol-4-yl)-1H-benzo[d] imidazol-2-amine] |
| 0.3 to 3 | Cc1noc(C)c1-c1cc(Nc2cnccn2)c2nc[nH]c2c1 [Example Compound 62, 6-(3,5 dimethyl-isoxazol-4-yl)-N-(pyrazin-2-yl)-1H-benzo[d] imidazol-4-amine] |
| 0.3 to 3 | Cc1nc2c(Nc3ncccc3C)cc(-c3c(C)noc3C)cc2[nH]1 [Example Compound 63, 6-(3,5-dimethyl-isoxazol-4-yl)-2-methyl-N-(3-methylpyridin-2-yl)-1H-benzo[d] imidazol-4-amine] |
| ≤ 0.3 | Cc1noc(C)c1-c1cc(-c2c(C)noc2C)c2nc(NCc3cccnc3)[nH]c2c1 [Example Compound 65, 4,6-bis(3,5-dimethyl-isoxazol-4-yl)-N-(pyridin-3-ylmethyl)-1H-benzo[d] imidazol-2-amine] |
| 0.3 to 3 | Cc1nc2c(-c3cc(C(=O)O)ccc3C)cc(-c3c(C)noc3C)cc2[nH]1 [Example Compound 75, 3-(6-(3,5-dimethyl-isoxazol-4-yl)-2-methyl-1H-benzo[d]imidazol-4-yl)-4-methyl benzoic acid] |
| 0.3 to 3 | Cc1nc2c(-c3ccccc3C(F)(F)F)cc(-c3c(C)noc3C)cc2[nH]1 [Example Compound 78, 3,5-dimethyl-4-(2-methyl-4-(2-(trifluoromethyl)phenyl)-1H-benzo[d]imidazol-6-yl)isoxazole] |
| 0.3 to 3 | Cc1nc2c(-c3cccnc3N)cc(-c3c(C)noc3C)cc2[nH]1 [Example Compound 82, 3-(6-(3,5-dimethyl-isoxazol-4-yl)-2-methyl-1H-benzo[d]imidazol-4-yl)pyridin-2-amine] |
| 0.3 to 3 | Cc1nc2c(-c3cccc(F)c3C#N)cc(-c3c(C)noc3C)cc2[nH]1 [Example Compound 83, 2-(6-(3,5-dimethyl-isoxazol-4-yl)-2-methyl-1H-benzo[d]imidazol-4-yl)-6-fluoro-benzonitrile] |
| 0.3 to 3 | Cc1ccc(-c2cc(-c3c(C)noc3C)cc3[nH]c(C)nc23)nn1 [Example Compound 86, 3,5-dimethyl-4-(2-methyl-4-(6-methyl-pyridazin-3-yl)-1H-benzo[d]imidazol-6-yl)isoxazole] |
| 0.3 to 3 | Cc1nc2c(-c3ccc(Cl)cc3C)cc(-c3c(C)noc3C)cc2[nH]1 [Example Compound 90, 4-(4-(4-chloro-2-methyl-phenyl)-2-methyl-1H-benzo[d]imidazol-6-yl)-3,5-dimethyl isoxazole] |
| ≤ 0.3 | Cc1nc2c(-c3cccc(OC(F)(F)F)c3)cc(-c3c(C)noc3C)cc2[nH]1 [Example Compound 96, 3,5-dimethyl-4-(2-methyl-4-(3-(trifluoro-methoxy)phenyl)-1H-benzo[d]imidazol-6-yl)isoxazole] |
| ≤ 0.3 | Cc1nc2cc(-c3c(C)noc3C)cc(-c3c(C)noc3C)c2o1 [Example Compound 101, 5,7-bis(3,5-dimethylisoxazol-4-yl)-2-methylbenzo[d]oxazole] |
| 0.3 to 3 | COc1ccccc1S(=O)(=O)Nc1cc(-c2c(C)noc2C)cc2[nH]cnc12 [Example Compound 102, N-(6-(3,5-dimethylisoxazol-4-yl)-1H-benzo[d]imidazol-4-yl)-2-methoxybenzenesulfonamide] |
| 0.3 to 3 | Cc1nc2c(-c3cccc4cccnc34)cc(-c3c(C)noc3C)cc2[nH]1 [Example Compound 111, 3,5-dimethyl-4-(2-methyl-4-(quinolin-8-yl)-1H-benzo[d]imidazol-6-yl)isoxazole] |
| ≤ 0.3 | CSc1nc2cc(-c3c(C)noc3C)cc(-c3c(C)nn(C)c3C)c2n1C [Example Compound 191, 3,5-dimethyl-4-(1-methyl-2-(methylthio)-7-(1,3,5-trimethyl-1H-pyrazol-4-yl)-1H-benzo[d]imidazol-5-yl)isoxazole] |
| ≤ 0.3 | Cc1ccc(C#N)cc1-c1cc(-c2c(C)noc2C)cc2[nH]c(N3CCOCC3)nc12 [Example Compound 193, 3-(6-(3,5-dimethyl-isoxazol-4-yl)-2-morpholino-1H-benzo[d]imidazol-4-yl)-4-methyl benzonitrile] |
| ≤ 0.3 | Cc1noc(C)c1-c1cc(-c2c(C)nn(C)c2C)c2nc(N3CCC3)[nH]c2c1 [Example Compound 217] |
| ≤ 0.3 | Cc1ccc(C(=O)N2CCCC2)cc1-c1cc(-c2c(C)noc2C)cc2[nH]c(N3CCCC3)nc12 [Example Compound 218, (3-(6-(3,5-dimethylisoxazol-4-yl)-2-(pyrrolidin-1-yl)-1H-benzo[d]imidazol-4-yl)-4-methylphenyl)(pyrrolidin-1-yl)methanone] |
